Earlier results on two substances are cited in patent US20040040468A1, “Drier for printing ink and printing ink containing drier” (DAINIPPON INK AND CHEMICALS, INC., priority 2002, published 2004).

This data set has as its system rat. The conditions noted are these: from database REGISTRY OF TOXIC EFFECTS OF CHEMICAL SUBSTANCES

As for Cobalt naphthenate, the “LD50 (rat, oral administration)” value is 3900 mg/kg. In the case of Manganese naphthenate, the “LD50 (rat, oral administration)” value was 6000 mg/kg.
